One data set deals with Jurkat leukemia cells. The experiment in a line: Antiproliferation assay. It is filed as cell-based, human. Particulars: for EC50 / inhibition at 50 µM: Jurkat; for EC50: read-out: Antiproliferative activity EC50, Jurkat; for inhibition at 50 µM: read-out: % inhibition at 50 µM, Jurkat; for Effect on growth of Jurkat cells: at 50 µM.
The subject of a further data set is SKNO-1 cells. The experiment in a line: Antiproliferation assay. In kind it is cell-based, human.
Another data set has as its system myeloid leukemia cells. The following applies: short course (3-7 days), high doses (20-30 mg/kg/day); ref [54]; cited from earlier work.
In a further data set the test system is NB4 cells. The experiment in a line: Antiproliferation assay. It is filed as cell-based, human.
The next data set relates to MV4-11 cells. As to the kind of experiment: Antiproliferation assay. It is filed as cell-based, human.
The subject of data set [1] is MCF-7 (breast cancer) cells. As to the kind of experiment: Antiproliferation assay. In kind it is cell-based, human.
The subject of data set [2] is normal fibroblast WI-38 cells. The experiment in a line: Antiproliferation assay. It is filed as cell-based, human.
Data set [3] concerns Kasumi-1 cells. As to the kind of experiment: Antiproliferation assay. In kind it is cell-based, human. The following applies: read-out: Antiproliferative activity EC50, Kasumi-1.
Data set [4] relates to murine c-kit+ hematopoietic stem/progenitor cells (HSPC). The experiment in a line: Colony-forming assay with hematopoietic stem/progenitor cells. Particulars: even at 250 nM. In kind it is cell-based, mouse.
Data set [5] relates to SKNO-1 leukemia. The experiment in a line: Subcutaneous xenograft mouse model of SKNO-1 leukemia. In kind it is in vivo. The following applies: i.p. 10 and 20 mg/kg/day, 10 injections in 14 days, NOD-SCID mice.
Data set [6] deals with Kasumi-1 and SKNO-1 cells. As to the kind of experiment: Antiproliferation assay, R-E leukemia cells. In kind it is cell-based, human. The following applies: more active than Dex.
The conditions of data set [7]: i.p. 100 mg/kg/day, 10 injections over 14 days.
For data set [8] the following is noted: ref [44], [45]; cited from earlier work.
In data set [9] the test system is Kasumi-1 cells. The experiment in a line: Combination treatment of Kasumi-1 cells, combination index. It is filed as cell-based, human. The following applies: Dex in combination with cytarabine, CI < 1 synergism, listed as Dex.
In data set [10] the test system is SKNO-1 leukemia. The following applies: 15 mg/kg/day i.p. injection for 4 days, ref [37], cited from earlier work.
Setting [11] is: Homo sapiens, SKNO-1, read-out: Antiproliferative activity EC50, SKNO-1.
[12] abbreviates: Homo sapiens, NB-4, read-out: Antiproliferative activity EC50, NB4.
Where [13] appears, read: Homo sapiens, MV4-11, read-out: Antiproliferative activity EC50, MV4-11.
[14] abbreviates: Homo sapiens, MCF7, read-out: Antiproliferative activity EC50, MCF-7.
The mark [15] stands for this setting: Homo sapiens, WI-38, read-out: Antiproliferative activity EC50, WI-38.

Several values for one entry are separate records, joined by “and”; a condition that tells them apart may be missing. Equal values may be shown once. Read-outs that look alike come from different tables or passages of the source.

This is an account of results in article PMC5928880 (Theranostics, 2018).

The EC50 is the concentration at which the effect is half-maximal. For `C[C@]12CCC(=O)C=C1CC[C@@H]1[C@@H]2[C@@H](O)C[C@@]2(C)[C@H]1CC[C@]2(O)C(=O)CO` [Hydrocortisone, hydrocortisone], the EC50 in the data set on Jurkat leukemia cells (Homo sapiens) was above 50 µM; in the data set on SKNO-1 cells (setting [11]), 0.41 µM.

As to `C[C@]12C=CC(=O)C=C1CC[C@@H]1[C@@H]2[C@@H](O)C[C@@]2(C)[C@H]1CC[C@]2(O)C(=O)CO` [Prednisolone, prednisolone], the EC50 with Jurkat leukemia cells (Homo sapiens) is above 50 µM; with SKNO-1 cells (setting [11]), 0.15 µM.

For orientation: inhibition means the change of the read-out against control, counted positive when it falls. With `CC(=O)c1ccc2c(c1)N(CCCN(C)C)c1ccccc1S2` [Acepromazine, acepromazine], in the data set with Jurkat leukemia cells (Homo sapiens), the inhibition at 50 µM was determined as 21% and the EC50 is above 50 µM.

As for `CN(C)/N=N/c1[nH]cnc1C(N)=O` [Dacarbazine, dacarbazine], the concentration giving a half-maximal response (EC50) in the data set on Jurkat leukemia cells (Homo sapiens) was 15.2 µM.

With `C[C@H]1C[C@@H]2[C@H]([C@@H](O)C[C@@]3(C)[C@H]2CC[C@]3(O)C(=O)CO)[C@@]2(C)C=CC(=O)C=C12` [methylprednisolone], the “Differentiation of myeloid leukemia cells in children with AML” value with myeloid leukemia cells was “induce differentiation of myeloid leukemia cells”.

On to `CC=CC(=O)N(CC)c1ccccc1C` (mixture of isomers) [Crotamiton, crotamiton], for which, in the data set with Jurkat leukemia cells (Homo sapiens), the inhibition at 50 µM was 11.2% and the EC50 is above 50 µM.

Consider `COc1cc2ccc(=O)oc2cc1O` [Scopoletin, scopoletin], for which, in the data set with Jurkat leukemia cells (Homo sapiens), the inhibition at 50 µM was found to be 29.4% and the EC50 is above 50 µM.

Take `C=CCNC1=C2C[C@@H](C)C[C@H](OC)[C@H](O)[C@@H](C)/C=C(\C)[C@H](OC(N)=O)[C@@H](OC)/C=C\C=C(/C)C(=O)NC(=CC1=O)C2=O` [Tanespimycin, tanespimycin]: the EC50 with Jurkat leukemia cells (Homo sapiens) is around 50 µM; in the data set on NB4 cells (setting [12]), 0.42 µM; in the data set with MV4-11 cells (setting [13]), 0.52 µM; in data set [1] (setting [14]), above 50 µM; in [2] (setting [15]), above 50 µM.

For the compound `CCCNCC(O)COc1ccccc1C(=O)CCc1ccccc1` (centres unmarked) [Propafenone, propafenone], in the data set on Jurkat leukemia cells (Homo sapiens), the inhibition at 50 µM came out at 2.5% and the 50% effective concentration (EC50) was above 50 µM.

For the compound `Cc1c(Nc2ncccc2C(=O)O)cccc1C(F)(F)F` [Fluninxin], the EC50 in the data set on Kasumi-1 cells [3] is 14.7 µM. In the data set on Jurkat leukemia cells, the “Effect on growth of Jurkat cells” value is “inactive” and the EC50 was around 50 µM.

As for `C[C@@H]1C[C@H]2[C@@H]3CCC4=CC(=O)C=C[C@]4(C)[C@@]3(F)[C@@H](O)C[C@]2(C)[C@@]1(O)C(=O)COP(=O)(O)O` [Dex-P, dexamethasone-21-phosphate], the EC50 in the data set with Kasumi-1 cells [3] was 0.009 µM; with Jurkat leukemia cells, above 50 µM; in the data set with SKNO-1 cells (read-out: Antiproliferative activity EC50, SKNO-1, SKNO-1) it was 0.017 µM; with NB4 cells (read-out: Antiproliferative activity EC50, NB4, NB4), above 50 µM; in the data set on MV4-11 cells (read-out: Antiproliferative activity EC50, MV4-11, MV4-11), above 50 µM; in data set [1] (read-out: Antiproliferative activity EC50, MCF-7, MCF-7), above 50 µM. Moreover, in data set [2] (read-out: Antiproliferative activity EC50, WI-38, WI-38), the EC50 is above 50 µM. The “Effect on colony-forming ability of murine HSPC” value in data set [4] is reported as “did not significantly affect”. Further, the “Survival in SKNO-1 xenograft” value in the data set with SKNO-1 leukemia [5] is reported as “prolonged survivals”. In addition, in the data set on SKNO-1 leukemia [5], the “Tumor growth in SKNO-1 xenograft” value is recorded as “significant tumor growth inhibition”. Besides, the “Activity compared to parent compound Dex (fold more active)” value in data set [6] is on record as ~ 2 fold. Moreover, in data set [7], the Toxicity to mice result is recorded as “without overt toxicities”. In data set [8], the t1/2 in humans is on record as 4.7 h.

`C[C@@H]1C[C@H]2[C@@H]3CCC4=CC(=O)C=C[C@]4(C)[C@@]3(F)[C@@H](O)C[C@]2(C)[C@@]1(O)C(=O)CO` [Dexamethasone, dexamethasone]: the EC50 is above 50 µM in the data set with Jurkat leukemia cells (Homo sapiens); 0.029 µM in the data set on SKNO-1 cells (setting [11]); above 50 µM in the data set on NB4 cells (setting [12]); above 50 µM in the data set on MV4-11 cells (setting [13]); above 50 µM in [1] (setting [14]); above 50 µM in data set [2] (setting [15]). Besides, the “Combination index (CI)” value with Kasumi-1 cells [9] is 0.13-0.75 and 0.13 to 0.75. Moreover, the “In vivo activity (tumor burden) in mouse model of SKNO-1 leukemia” value in the data set with SKNO-1 leukemia [10] is recorded as “did not reduce in vivo tumor burden”; in the data set on SKNO-1 leukemia [10] (listed as Dex) it was “no in vivo activity”.

Regarding `C[C@H]1C[C@H]2[C@@H]3CCC4=CC(=O)C=C[C@]4(C)[C@@]3(F)[C@@H](O)C[C@]2(C)[C@@]1(O)C(=O)CO` [Betamethasone, betamethasone], the inhibition at 50 µM in the data set on Jurkat leukemia cells (Homo sapiens) stood at 6.9%. For the same compound, the EC50 in the data set on Jurkat leukemia cells (Homo sapiens) was above 50 µM; with SKNO-1 cells (setting [11]), 0.059 µM; in the data set with NB4 cells (setting [12]), above 50 µM; in the data set with MV4-11 cells (setting [13]), above 50 µM; in [1] (setting [14]), above 50 µM; in data set [2] (setting [15]) it was above 50 µM. Besides, the “Effect on growth of Jurkat cells” value with Jurkat leukemia cells is “did not affect growth”. Moreover, in data set [4], the “Effect on colony-forming ability of murine HSPC” value was “did not significantly affect”.

As to `COc1ccc2cc(CCC(C)=O)ccc2c1` [Nabumetone], in the data set on Kasumi-1 cells [3], the EC50 was determined as 18.5 µM. Moreover, in the data set on Jurkat leukemia cells (Homo sapiens), the inhibition at 50 µM is -3.5% and the EC50 was above 50 µM. In addition, the “Effect on growth of Jurkat cells” value with Jurkat leukemia cells was “inactive”.

In the case of `CO[C@H]1/C=C\C=C(/C)C(=O)NC2=CC(=O)C(NCCN(C)C)=C(C[C@@H](C)C[C@H](OC)[C@H](O)[C@@H](C)/C=C(\C)[C@@H]1OC(N)=O)C2=O` [Alvespimycin, alvespimycin], the EC50 with Jurkat leukemia cells (Homo sapiens) is 1.6 µM; with NB4 cells (setting [12]), 0.055 µM; with MV4-11 cells (setting [13]), 0.09 µM; in [1] (setting [14]), 5.2 µM; in data set [2] (setting [15]) it was 27 µM.
